Reference: patent US20260335398A1, “METHODS FOR TREATING PANCREATIC CANCER WITH A COMBINATION OF DES-METHYL PATEAMINE A AND A CLASS I HDAC INHIBITOR” (Baylor University, priority 2023, published 2026)

How the values were obtained:
MIA PaCa-2 cells = test: Cellular acetyl-CoA levels by LC-MS (FIG. 8D); type: cell-based; conditions: MIA PaCa-2, total 18 h
Description: FIG. 8D compares cellular acetyl-CoA levels measured in MIA PaCa-2 cells using LC-MS following treatment of cells with the combination or with single agents as mentioned in FIG. 8A. At least three biological replicate experiments were carried out. Statistical significance was determined by two-way ANOVA, ****p value<0.0001, ***p value<0.0004.
Five million cells were seeded in 150 mm cell culture dishes. Cells were treated with combination or single agents for a total of 18 h (6-+12-hours). Following treatment cells were harvested on ice, washed, and scraped out under liquid nitrogen. Prior to extraction an aliquot of the cell pellet was collected and subjected to protein quantification.
For Acetyl-CoA extraction, a 100 μL aliquot of the thawed pellet was spiked with ^13C2-acetyl-CoA as an internal standard, extracted with 400 μL of methanol, vortexed, and centrifuged at […] for 5 minutes at 4 °C. The methanol supernatant (400 μL) was then dried under nitrogen at 35 °C and reconstituted in 100 μL of 10 mM ammonium bicarbonate (pH 9.5) for LC/MS analysis. Calibration curve standards were similarly prepared as the cell pellets. Acetyl-CoA quantification by LC/MS was performed on an Agilent 1290 Infinity UHPLC/6495 triple quadrupole mass spectrometer, using multiple reaction monitoring. […]

SNRPN locus = test: DRIP-qPCR R-loop accumulation at negative locus SNRPN (FIG. 10A); type: cell-based; conditions: MIA PaCa-2, 6+3 hours
Description: FIG. 10A illustrates the fold increase in the percent of input values in DRIP-qPCR for the VGF, HBA2, and SNRPN loci in MIA PaCa-2 cells treated with or without the combination or single agents. Genomic DNA was treated in vitro with or without RNaseH1 before immunoprecipitation using S9.6 antibody. Treatment was for 6+3 hours (i.e., 6-hour romidepsin followed by 3-hour washout with 2 nM DMPatA (combo) or without). Statistical significance was determined by 3-way ANOVA, ***p value<0.001. This experiment confirms the formation of R-loops at the investigated gene loci.
Romidepsin-induced histone hyperacetylation leads to the accumulation of R-loops that can increase genome instability. Because treatment of cells with the combination increased global transcription and led to persistence of histone hyperacetylation, it was postulated the treatment could similarly enhance the formation of R-loops and contribute to cell death. R-loop accumulation was further confirmed using DRIP-qPCR. […]
DRIP assay was performed according to the method previously described (Sanz L A, Chédin F. High-resolution, strand-specific R-loop mapping via S9. 6-based DNA-RNA immunoprecipitation and high-throughput sequencing. Nature protocols. 2019; 14(6):1734). […] Quantitative PCR was performed at the R-loop positive loci VGF and HBA2 genes and R-loop negative locus SNRPN gene with the primers listed in Table 1.

MIA PaCa-2 and KLM cells = test: Replication fork dynamics; type: cell-based; conditions: 24 hours
Excerpt: Having observed R-loop accumulation following treatment with the combination, it was hypothesized that hypertranscription, persistent hyperacetylation, and R-loop accumulation could increase the incidence of transcription replication conflicts, genome instability, and DNA damage and contribute to cell death. In response to DNA damage, replication protein A2 (RPA2) is phosphorylated at multiple sites by different protein kinases, including ATM, ATR, and DNA-PK, while the serine threonine-protein kinase, Chk1 (checkpoint kinase 1), is phosphorylated and activated by ATR. […] Drug treatments were for 24 hours (i.e., romidepsin treatment in combination or single agent romidepsin was 6 hours followed by 18-hour incubation with 2 nM DMPatA or with fresh medium respectively).

H3K9ac = test: Immunohistochemistry of H3K9ac in MIA PaCa-2 xenograft tumor tissue (FIG. 2C); type: in vivo, athymic nude mice; conditions: IHC, tumors at end of study
Excerpt: FIGS. 2A and 2B illustrate the results of a MIA PaCa-2 xenograft model of PDAC in male athymic nude mice. FIG. 2A compares tumor growth (mm^3) in mice treated with the indicated concentrations of combination, romidepsin and DMPatA using IP route and vehicles described in the materials and methods section below. FIG. 2B compares body weight (g) of mice treated with the combination and single agents following treatment. FIGS. 2C and 2D compare quantification of H3K9ac and c-MYC antibodies. Frozen sections from MIA PaCa-2 xenograft tumor tissues were subjected to immunohistochemical analysis using antibodies against H3K9ac, and c-MYC. Fluorescence images were captured using fluorescent microscopy and the fluorescent signal from H3K9ac and c-MYC antibodies were quantified. To quantify fluorescence intensity at least 500 cells per condition were measured for each antibody at 40× magnification. The median of the signal intensity is shown. Statistical significance was determined by one-way ANOVA using Tukey multiple comparisons test, ****p value<0.0001.
Additionally, snap-frozen tumor tissue samples from the mice treated with vehicle, single agents, and the combination were collected at the end of the study. These samples were sectioned, and the levels of H3K9ac and c-MYC proteins in tumor tissues were assessed by immunohistochemistry. […]

cells = conditions: 50 nM, 6-hour exposure; cited from earlier work

Structure (SMILES): C/C=C1\NC(=O)[C@H]2CSSCC/C=C/[C@H](CC(=O)N[C@H](C(C)C)C(=O)N2)OC(=O)[C@H](C(C)C)NC1=O [romidepsin]
- cellular acetyl-CoA levels (MIA PaCa-2 cells): significant reduction
- R-loop accumulation at SNRPN (SNRPN locus): no accumulation of R-loops
- replication fork speed (MIA PaCa-2 and KLM cells): significant reduction
- H3K9ac level in tumor (H3K9ac): increased significantly
- susceptibility of cells to romidepsin (cells): Only a subset of cells susceptible
